Reference: patent US20260356819A1, “OXOISOINDOLINYL-SUBSTITUTED […] DERIVATIVE AND USE THEREOF” (GLUETACS THERAPEUTICS (SHANGHAI) CO., LTD., priority 2023, published 2026)

What was measured:
Type in all cases: cell-based
Settings in all cases: compounds at 50 nM and 500 nM
WEE1 = biological target: T1, WEE1 (Homo sapiens, UniProt P30291+Q96SW2); assay: Western blot degradation of WEE1 in hPBMCs (24 h)
T1 construct: The supernatant was aspirated as the extracted total cell protein; endogenous in cells; host or cells: human peripheral blood mononuclear cells (hPBMCs)
T1 sequence (P30291 whole entry): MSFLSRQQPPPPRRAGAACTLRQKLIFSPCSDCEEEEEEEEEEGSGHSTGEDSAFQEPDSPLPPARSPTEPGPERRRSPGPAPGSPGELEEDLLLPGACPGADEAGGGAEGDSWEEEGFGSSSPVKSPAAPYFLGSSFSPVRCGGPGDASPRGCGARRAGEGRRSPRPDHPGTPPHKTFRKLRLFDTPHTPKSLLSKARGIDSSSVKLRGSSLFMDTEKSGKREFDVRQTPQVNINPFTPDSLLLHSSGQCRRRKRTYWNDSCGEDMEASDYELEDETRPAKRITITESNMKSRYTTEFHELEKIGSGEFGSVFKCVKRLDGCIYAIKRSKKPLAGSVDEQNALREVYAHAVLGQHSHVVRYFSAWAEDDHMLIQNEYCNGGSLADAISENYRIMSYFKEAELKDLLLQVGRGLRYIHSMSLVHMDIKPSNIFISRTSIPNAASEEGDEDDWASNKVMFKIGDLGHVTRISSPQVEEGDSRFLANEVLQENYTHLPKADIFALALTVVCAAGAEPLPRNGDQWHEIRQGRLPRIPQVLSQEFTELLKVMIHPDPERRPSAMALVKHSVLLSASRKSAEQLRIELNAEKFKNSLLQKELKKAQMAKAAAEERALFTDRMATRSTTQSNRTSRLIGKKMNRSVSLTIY
T1 sequence (Q96SW2 whole entry): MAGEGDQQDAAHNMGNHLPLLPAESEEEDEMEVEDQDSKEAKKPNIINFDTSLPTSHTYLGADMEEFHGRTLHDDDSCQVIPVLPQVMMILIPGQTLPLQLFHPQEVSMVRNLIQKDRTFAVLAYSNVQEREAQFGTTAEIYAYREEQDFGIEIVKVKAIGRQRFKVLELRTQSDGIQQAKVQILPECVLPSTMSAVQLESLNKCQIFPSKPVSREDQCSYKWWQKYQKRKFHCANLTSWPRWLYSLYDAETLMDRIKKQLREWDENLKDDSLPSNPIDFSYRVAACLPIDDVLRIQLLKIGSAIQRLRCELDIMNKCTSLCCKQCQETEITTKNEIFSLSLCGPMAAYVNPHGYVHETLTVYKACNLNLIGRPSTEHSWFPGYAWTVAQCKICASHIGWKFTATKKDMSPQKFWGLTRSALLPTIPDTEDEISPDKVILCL
T1 sequence (Q16531 whole entry partner): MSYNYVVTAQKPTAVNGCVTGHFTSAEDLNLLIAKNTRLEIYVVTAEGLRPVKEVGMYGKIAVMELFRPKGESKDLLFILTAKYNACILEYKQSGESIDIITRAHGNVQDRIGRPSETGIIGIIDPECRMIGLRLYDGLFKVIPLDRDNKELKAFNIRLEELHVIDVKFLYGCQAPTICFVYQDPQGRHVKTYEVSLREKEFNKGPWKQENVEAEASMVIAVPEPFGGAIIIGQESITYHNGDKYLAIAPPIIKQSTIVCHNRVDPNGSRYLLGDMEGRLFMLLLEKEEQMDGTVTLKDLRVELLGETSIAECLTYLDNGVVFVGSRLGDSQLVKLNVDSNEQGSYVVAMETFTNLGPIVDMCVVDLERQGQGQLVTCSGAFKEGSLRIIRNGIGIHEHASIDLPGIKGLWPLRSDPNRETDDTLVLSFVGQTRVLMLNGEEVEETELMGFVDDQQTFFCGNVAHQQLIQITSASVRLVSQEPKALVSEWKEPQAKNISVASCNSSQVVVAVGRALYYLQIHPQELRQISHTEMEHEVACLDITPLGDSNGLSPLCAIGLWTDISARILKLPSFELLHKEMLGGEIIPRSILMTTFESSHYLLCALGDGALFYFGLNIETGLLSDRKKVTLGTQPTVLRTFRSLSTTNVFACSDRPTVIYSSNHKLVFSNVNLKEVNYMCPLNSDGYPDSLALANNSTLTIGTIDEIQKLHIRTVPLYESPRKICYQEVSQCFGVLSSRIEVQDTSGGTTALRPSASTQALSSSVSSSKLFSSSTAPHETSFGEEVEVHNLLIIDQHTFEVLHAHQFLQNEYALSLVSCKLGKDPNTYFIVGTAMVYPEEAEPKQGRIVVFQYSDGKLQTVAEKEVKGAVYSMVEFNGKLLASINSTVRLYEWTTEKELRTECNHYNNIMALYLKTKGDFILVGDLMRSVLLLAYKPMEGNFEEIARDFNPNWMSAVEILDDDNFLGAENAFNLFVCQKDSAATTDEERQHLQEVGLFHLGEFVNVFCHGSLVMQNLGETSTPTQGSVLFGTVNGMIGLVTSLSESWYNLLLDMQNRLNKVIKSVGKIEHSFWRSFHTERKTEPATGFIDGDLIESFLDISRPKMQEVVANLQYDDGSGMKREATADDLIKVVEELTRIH
Outline: (§1)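 Western blot densitometry after 24 h treatment of human PBMCs (1×10^6 cells/mL) with 50 nM or 500 nM compound. Remaining target (%) = band intensity over internal-control band, normalized to DMSO; degradation = 1 − remaining; DC50 is the concentration giving half the DMSO band signal.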

CK1α = biological target: T2, CK1α (Homo sapiens, UniProt P48729+Q96SW2); assay: Western blot degradation of CK1α in hPBMCs (24 h)
T2 construct: The supernatant was aspirated as the extracted total cell protein; endogenous in cells; host or cells: human peripheral blood mononuclear cells (hPBMCs)
T2 sequence (P48729 whole entry): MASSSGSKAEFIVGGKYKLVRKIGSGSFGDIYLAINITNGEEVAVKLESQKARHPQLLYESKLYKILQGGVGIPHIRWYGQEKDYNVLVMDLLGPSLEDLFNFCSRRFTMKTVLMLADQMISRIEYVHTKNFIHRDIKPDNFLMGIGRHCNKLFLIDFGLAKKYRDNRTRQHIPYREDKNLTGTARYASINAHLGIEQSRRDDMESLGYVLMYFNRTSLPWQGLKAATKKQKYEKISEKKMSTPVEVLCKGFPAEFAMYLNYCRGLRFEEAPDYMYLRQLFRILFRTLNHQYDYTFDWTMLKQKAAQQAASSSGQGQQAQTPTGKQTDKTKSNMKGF
T2 sequence (Q96SW2 whole entry): as the sequence (Q96SW2 whole entry) above
T2 sequence (Q16531 whole entry partner): as the sequence (Q16531 whole entry partner) above
Outline: as §1

IKZF3 = biological target: T3, IKZF3 (Homo sapiens, UniProt Q96SW2+Q9UKT9); assay: Western blot degradation of IKZF3 in hPBMCs (24 h)
T3 construct: The supernatant was aspirated as the extracted total cell protein; endogenous in cells; host or cells: human peripheral blood mononuclear cells (hPBMCs)
T3 sequence (Q9UKT9 whole entry): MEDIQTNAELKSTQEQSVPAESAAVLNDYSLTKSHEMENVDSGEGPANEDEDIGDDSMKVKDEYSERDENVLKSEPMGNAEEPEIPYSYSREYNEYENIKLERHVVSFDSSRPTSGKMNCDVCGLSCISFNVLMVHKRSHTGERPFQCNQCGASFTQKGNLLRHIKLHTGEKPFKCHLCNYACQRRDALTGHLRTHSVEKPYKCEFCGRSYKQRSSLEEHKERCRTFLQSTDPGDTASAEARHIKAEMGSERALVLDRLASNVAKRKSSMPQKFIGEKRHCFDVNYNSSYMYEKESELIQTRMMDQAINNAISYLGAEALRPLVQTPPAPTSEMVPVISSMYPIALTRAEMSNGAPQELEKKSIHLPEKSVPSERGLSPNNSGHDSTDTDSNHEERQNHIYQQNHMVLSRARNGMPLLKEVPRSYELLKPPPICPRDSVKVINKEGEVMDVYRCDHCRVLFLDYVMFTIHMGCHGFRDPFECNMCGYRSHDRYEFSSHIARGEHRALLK
T3 sequence (Q96SW2 whole entry): as the sequence (Q96SW2 whole entry) above
T3 sequence (Q16531 whole entry partner): as the sequence (Q16531 whole entry partner) above
Outline: as §1

IKZF1 = biological target: T4, IKZF1 (Homo sapiens, UniProt Q13422+Q96SW2); assay: Western blot degradation of IKZF1 in hPBMCs (24 h)
T4 construct: The supernatant was aspirated as the extracted total cell protein; endogenous in cells; host or cells: human peripheral blood mononuclear cells (hPBMCs)
T4 sequence (Q13422 whole entry): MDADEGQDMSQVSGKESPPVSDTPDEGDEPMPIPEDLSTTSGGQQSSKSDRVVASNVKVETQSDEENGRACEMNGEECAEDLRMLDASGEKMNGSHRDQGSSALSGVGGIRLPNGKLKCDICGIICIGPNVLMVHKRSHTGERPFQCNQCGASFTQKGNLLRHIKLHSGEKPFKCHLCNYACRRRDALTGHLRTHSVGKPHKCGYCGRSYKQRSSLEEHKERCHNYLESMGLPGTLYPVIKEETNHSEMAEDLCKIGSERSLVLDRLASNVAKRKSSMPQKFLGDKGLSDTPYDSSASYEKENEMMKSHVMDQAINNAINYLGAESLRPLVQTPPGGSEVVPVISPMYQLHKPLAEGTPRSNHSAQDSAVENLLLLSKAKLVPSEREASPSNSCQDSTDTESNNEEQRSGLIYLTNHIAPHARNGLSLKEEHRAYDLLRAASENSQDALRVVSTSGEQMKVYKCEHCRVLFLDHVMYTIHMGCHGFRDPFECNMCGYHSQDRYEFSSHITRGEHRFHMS
T4 sequence (Q96SW2 whole entry): as the sequence (Q96SW2 whole entry) above
T4 sequence (Q16531 whole entry partner): as the sequence (Q16531 whole entry partner) above
Outline: as §1

GSPT1 = biological target: T5, GSPT1 (Homo sapiens, UniProt P15170+Q96SW2); assay: Western blot degradation of GSPT1 in hPBMCs (24 h)
T5 construct: The supernatant was aspirated as the extracted total cell protein; endogenous in cells; host or cells: human peripheral blood mononuclear cells (hPBMCs)
Outline: as §1

IKZF2 = biological target: T6, IKZF2 (Homo sapiens, UniProt Q96SW2+Q9UKS7); assay: Western blot degradation of IKZF2 in hPBMCs (24 h)
T6 construct: The supernatant was aspirated as the extracted total cell protein; endogenous in cells; host or cells: human peripheral blood mononuclear cells (hPBMCs)
T6 sequence (Q9UKS7 whole entry): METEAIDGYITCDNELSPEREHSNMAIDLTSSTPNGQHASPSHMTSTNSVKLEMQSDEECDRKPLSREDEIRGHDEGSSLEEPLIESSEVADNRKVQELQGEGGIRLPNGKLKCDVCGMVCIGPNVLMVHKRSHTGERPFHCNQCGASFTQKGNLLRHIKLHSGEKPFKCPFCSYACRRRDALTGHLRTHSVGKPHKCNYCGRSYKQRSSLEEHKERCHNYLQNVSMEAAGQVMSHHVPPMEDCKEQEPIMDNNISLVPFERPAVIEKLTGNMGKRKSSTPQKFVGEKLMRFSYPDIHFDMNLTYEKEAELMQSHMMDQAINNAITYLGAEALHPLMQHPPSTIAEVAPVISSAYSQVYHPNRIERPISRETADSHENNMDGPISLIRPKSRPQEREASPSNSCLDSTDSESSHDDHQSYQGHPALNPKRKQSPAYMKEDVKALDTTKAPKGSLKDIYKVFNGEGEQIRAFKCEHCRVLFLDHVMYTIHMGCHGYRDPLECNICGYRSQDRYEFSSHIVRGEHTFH
T6 sequence (Q96SW2 whole entry): as the sequence (Q96SW2 whole entry) above
T6 sequence (Q16531 whole entry partner): as the sequence (Q16531 whole entry partner) above
Outline: as §1

Row | Compound | WEE1 substrate protein remaining % (WEE1) | CK1α substrate protein remaining % (CK1α) | IKZF3 substrate protein remaining % (IKZF3) | IKZF1 substrate protein remaining % (IKZF1) | GSPT1 substrate protein remaining % (GSPT1) | IKZF2 substrate protein remaining % (IKZF2)
1 | O=C1CCN(N2C(=O)c3ccc(CN4CCN(Cc5ccc(C67CC8CC(CC(C8)C6)C7)cc5)CC4)cc3C2=O)C(=O)N1 [GT-07722, 5-((4-(4-((3r,5r,7r)-adamantan-1-yl)benzyl)piperazin-1-yl)methyl)-2-(2,4-dioxotetrahydropyrimidin-1(2H)-yl)isoindoline-1,3-dione] | A (0% ≤ substrate protein remaining % ≤80%) | A (0% ≤ substrate protein remaining % ≤80%) | A (0% ≤ substrate protein remaining % ≤80%) | B (80%< substrate protein remaining % ≤100%) | A (0% ≤ substrate protein remaining % ≤80%) | A (0% ≤ substrate protein remaining % ≤80%)
2 | O=C1CCN(N2Cc3cc(CN4CC5CCC(C4)N5c4cccc(Cl)c4Cl)ccc3C2=O)C(=O)N1 [GT-07429, 1-(5-((8-(2,3-dichlorophenyl)-3,8-diazabicyclo[3.2.1]octan-3-yl)methyl)-1-oxoisoindolin-2-yl)dihydropyrimidine-2,4(1H,3H)-dione] | B (80%< substrate protein remaining % ≤100%) | B (80%< substrate protein remaining % ≤100%) | B (80%< substrate protein remaining % ≤100%) | A (0% ≤ substrate protein remaining % ≤80%) | B (80%< substrate protein remaining % ≤100%) | B (80%< substrate protein remaining % ≤100%)
3 | O=C1CCN(N2C(=O)c3ccc(CN4CCN(c5ncnc6sc(Br)cc56)CC4)cc3C2=O)C(=O)N1 [GT-08096, 5-((4-(6-bromothieno[2,3-d]pyrimidin-4-yl)piperazin-1-yl)methyl)-2-(2,4-dioxotetrahydropyrimidin-1(2H)-yl)isoindoline-1,3-dione] | A (0% ≤ substrate protein remaining % ≤80%) | A (0% ≤ substrate protein remaining % ≤80%) | B (80%< substrate protein remaining % ≤100%) | B (80%< substrate protein remaining % ≤100%) | A (0% ≤ substrate protein remaining % ≤80%) | B (80%< substrate protein remaining % ≤100%)
4 | CC1(C)CCC(CN2CC3CCC2CN3Cc2ccc3c(c2)C(=O)N(N2CCC(=O)NC2=O)C3=O)=C(c2ccc(Cl)cc2)C1 (stereo not drawn) [GT-07300, 5-((5-((4′-chloro-5,5-dimethyl-3,4,5,6-tetrahydro-[1,1′-biphenyl]-2-yl)methyl)-2,5-diazabicyclo[2.2.2]octan-2-yl)methyl)-2-(2,4-dioxotetrahydropyrimidin-1(2H)-yl)isoindoline-1,3-dione] | A (0% ≤ substrate protein remaining % ≤80%) | B (80%< substrate protein remaining % ≤100%) | B (80%< substrate protein remaining % ≤100%) | B (80%< substrate protein remaining % ≤100%) | B (80%< substrate protein remaining % ≤100%) | B (80%< substrate protein remaining % ≤100%)
5 | O=C1CCN(N2Cc3cc(CN4CCN(c5nccc(Cl)c5F)CC4)ccc3C2=O)C(=O)N1 [GT-05358, 1-(5-((4-(4-chloro-3-fluoropyridin-2-yl)piperazin-1-yl)methyl)-1-oxoisoindolin-2-yl)dihydropyrimidine-2,4(1H,3H)-dione] | B (80%< substrate protein remaining % ≤100%) | B (80%< substrate protein remaining % ≤100%) | B (80%< substrate protein remaining % ≤100%) | B (80%< substrate protein remaining % ≤100%) | A (0% ≤ substrate protein remaining % ≤80%) | B (80%< substrate protein remaining % ≤100%)
6 | Cc1nc(C2=CCN(Cc3ccc4c(c3)C(=O)N(N3CCC(=O)NC3=O)C4=O)CC2)c2c3c(sc2n1)CCCC3 [GT-08432, 2-(2,4-dioxotetrahydropyrimidin-1(2H)-yl)-5-((4-(2-methyl-5,6,7,8-tetrahydrobenzo[4,5]thieno[2,3-d]pyrimidin-4-yl)-3,6-dihydropyridin-1(2H)-yl)methyl)isoindoline-1,3-dione] | B (80%< substrate protein remaining % ≤100%) | A (0% ≤ substrate protein remaining % ≤80%) | A (0% ≤ substrate protein remaining % ≤80%) | B (80%< substrate protein remaining % ≤100%) | A (0% ≤ substrate protein remaining % ≤80%) | B (80%< substrate protein remaining % ≤100%)
7 | O=C1CCN(N2C(=O)c3ccc(CN4CCN(c5ccc(F)cc5)CC4)cc3C2=O)C(=O)N1 [GT-06725, 2-(2,4-dioxotetrahydropyrimidin-1(2H)-yl)-5-((4-(4-fluorophenyl)piperazin-1-yl)methyl)isoindoline-1,3-dione] | B (80%< substrate protein remaining % ≤100%) | B (80%< substrate protein remaining % ≤100%) | B (80%< substrate protein remaining % ≤100%) | A (0% ≤ substrate protein remaining % ≤80%) | B (80%< substrate protein remaining % ≤100%) | B (80%< substrate protein remaining % ≤100%)
8 | O=C1CCN(N2Cc3cc(CN4CCC(c5n[nH]c6cc(F)ccc56)CC4)ccc3C2=O)C(=O)N1 [GT-07508, 1-(5-((4-(6-fluoro-1H-indazol-3-yl)piperidin-1-yl)methyl)-1-oxoisoindolin-2-yl)dihydropyrimidine-2,4(1H,3H)-dione] | A (0% ≤ substrate protein remaining % ≤80%) | A (0% ≤ substrate protein remaining % ≤80%) | B (80%< substrate protein remaining % ≤100%) | A (0% ≤ substrate protein remaining % ≤80%) | A (0% ≤ substrate protein remaining % ≤80%) | A (0% ≤ substrate protein remaining % ≤80%)
9 | O=C1CCN(N2C(=O)c3ccc(CN4CCN(C(c5ccccc5)c5ccncc5)CC4)cc3C2=O)C(=O)N1 (stereo not drawn) [GT-06378, 2-(2,4-dioxotetrahydropyrimidin-1(2H)-yl)-5-((4-(phenyl(pyridin-4-yl)methyl)piperazin-1-yl)methyl)isoindoline-1,3-dione] | A (0% ≤ substrate protein remaining % ≤80%) | B (80%< substrate protein remaining % ≤100%) | A (0% ≤ substrate protein remaining % ≤80%) | B (80%< substrate protein remaining % ≤100%) | B (80%< substrate protein remaining % ≤100%) | A (0% ≤ substrate protein remaining % ≤80%)
10 | O=C1CCN(N2Cc3cc(CN4CCN(c5c(F)cncc5Cl)CC4)ccc3C2=O)C(=O)N1 [GT-07171, 1-(5-((4-(3-chloro-5-fluoropyridin-4-yl)piperazin-1-yl)methyl)-1-oxoisoindolin-2-yl)dihydropyrimidine-2,4(1H,3H)-dione] | A (0% ≤ substrate protein remaining % ≤80%) | B (80%< substrate protein remaining % ≤100%) | B (80%< substrate protein remaining % ≤100%) | B (80%< substrate protein remaining % ≤100%) | B (80%< substrate protein remaining % ≤100%) | B (80%< substrate protein remaining % ≤100%)
11 | O=C1CCN(N2C(=O)c3ccc(CN4CCC(c5ccco5)CC4)cc3C2=O)C(=O)N1 [GT-05315, 2-(2,4-dioxotetrahydropyrimidin-1(2H)-yl)-5-((4-(furan-2-yl)piperidin-1-yl)methyl)isoindoline-1,3-dione] | B (80%< substrate protein remaining % ≤100%) | B (80%< substrate protein remaining % ≤100%) | B (80%< substrate protein remaining % ≤100%) | B (80%< substrate protein remaining % ≤100%) | A (0% ≤ substrate protein remaining % ≤80%) | B (80%< substrate protein remaining % ≤100%)
12 | O=C1CCN(N2C(=O)c3ccc(CN4CC=C(c5ccnc(F)c5F)CC4)cc3C2=O)C(=O)N1 [GT-07494, 5-((2′,3′-difluoro-3,6-dihydro-[4,4′-bipyridin]-1(2H)-yl)methyl)-2-(2,4-dioxotetrahydropyrimidin-1(2H)-yl)isoindoline-1,3-dione] | A (0% ≤ substrate protein remaining % ≤80%) | A (0% ≤ substrate protein remaining % ≤80%) | B (80%< substrate protein remaining % ≤100%) | B (80%< substrate protein remaining % ≤100%) | B (80%< substrate protein remaining % ≤100%) | B (80%< substrate protein remaining % ≤100%)
